Biological target: T1, Dopamine beta hydroxylase (Homo sapiens, UniProt P09172)
T1 construct: 125 μl of plasma; tissue Instituto Português do Sangue Transplantação; host or cells: human plasma from healthy donors
T1 sequence (P09172 40-617 limits assumed): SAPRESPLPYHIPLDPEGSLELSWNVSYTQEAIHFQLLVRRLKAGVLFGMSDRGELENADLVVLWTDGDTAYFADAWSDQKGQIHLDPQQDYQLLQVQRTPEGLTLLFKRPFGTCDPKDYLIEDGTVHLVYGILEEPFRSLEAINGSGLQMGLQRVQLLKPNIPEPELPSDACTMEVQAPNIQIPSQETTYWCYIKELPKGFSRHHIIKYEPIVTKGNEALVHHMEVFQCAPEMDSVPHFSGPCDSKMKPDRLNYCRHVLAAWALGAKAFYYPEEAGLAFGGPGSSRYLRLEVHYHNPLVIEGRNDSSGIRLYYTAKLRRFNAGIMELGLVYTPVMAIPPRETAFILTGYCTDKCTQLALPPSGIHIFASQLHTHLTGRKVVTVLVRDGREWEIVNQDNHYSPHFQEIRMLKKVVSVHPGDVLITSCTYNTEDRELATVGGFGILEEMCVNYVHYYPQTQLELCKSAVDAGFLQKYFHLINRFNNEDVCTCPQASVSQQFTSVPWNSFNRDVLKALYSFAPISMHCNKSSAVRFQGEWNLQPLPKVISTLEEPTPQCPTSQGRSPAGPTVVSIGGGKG
Assay: Dopamine beta hydroxylase activity in human plasma
Type: biochemical
Settings: for Plasma (0.01 μM), activity in % of control: inhibitor 0.01 μM; for Plasma (0.1 μM), activity in % of control: inhibitor 0.1 μM; for Plasma (1 μM), activity in % of control: inhibitor 1 μM
Summary of the method: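 Octopamine production from tyramine over 45 min at 37° C, measured photometrically at 330 nm after SCX extraction and periodate oxidation against an octopamine standard curve, indicates plasma DβH activity. Compounds tested at final 10, 100 and 1000 nM in human plasma, pH 5.0 cofactor buffer, 10 min preincubation; results as % of control.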

Row | SMILES | Plasma (0.01 μM), activity in % of control | Plasma (0.1 μM), activity in % of control | Plasma (1 μM), activity in % of control
1 | Cn1c(CCNC(C)(C)C)c2n(c1=S)C[C@@H](c1c(F)ccc(F)c1F)C2 [Example 476, (R)-1-(2-(tert-butylamino)ethyl)-2-methyl-6-(2,3,6-trifluorophenyl)-2,5,6,7-tetrahydro-3H-pyrrolo[1,2-c]imidazole-3-thione Hydrofluoride] | 94.3 % of control | 64.8 % of control | –
2 | CN(C(=O)Cc1c2n(c(=S)n1C)C[C@@]1(c3cc(Cl)ccc3F)C[C@@H]21)C1COC1 [Example 431, 2-((5aS,6aR)-5a-(5-chloro-2-fluorophenyl)-2-methyl-3-thioxo-2,3,5,5a,6,6a-hexahydrocyclopropa[3,4]pyrrolo[1,2-c]imidazol-1-yl)-N-methyl-N-(oxetan-3-yl)acetamide] | 54.3 % of control | 10.1 % of control | –
3 | Cn1cc(CNC(=O)Cc2c3n(c(=S)n2C)C[C@H](c2c(F)ccc(Cl)c2F)C3)cn1 [Example 338, (S)-2-(6-(3-chloro-2,6-difluorophenyl)-2-methyl-3-thioxo-2,5,6,7-tetrahydro-3H-pyrrolo[1,2-c]imidazol-1-yl)-N-((1-methyl-1H-pyrazol-4-yl)methyl)acetamide] | 36.4 % of control | 6.2 % of control | –
4 | N#C/N=C(/NCc1[nH]c(=S)n2c1C[C@@H](c1c(F)ccc(Br)c1F)C2)N1CCCC1 [Example 225, (S,Z)—N-((6-(3-bromo-2,6-difluorophenyl)-3-thioxo-2,5,6,7-tetrahydro-3H-pyrrolo[1,2-c]imidazol-1-yl)methyl)-N′-cyanopyrrolidine-1-carboximidamide] | 65.3 % of control | 12.5 % of control | –
5 | CN(C(=O)Cc1c2n(c(=S)n1C)C[C@@]1(c3c(F)ccc(Cl)c3F)C[C@@H]21)[C@@H]1CCOC1 [Example 467, 2-((5aS,6aR)-5a-(3-chloro-2,6-difluorophenyl)-2-methyl-3-thioxo-2,3,5,5a,6,6a-hexahydrocyclopropa[3,4]pyrrolo[1,2-c]imidazol-1-yl)-N-methyl-N—((R)-tetrahydrofuran-3-yl)acetamide] | 27.9 % of control | 4.0 % of control | –
6 | Cn1c(CC(=O)NCC2CCCO2)c2n(c1=S)C[C@@H](c1c(F)c(F)cc(F)c1F)C2 (stereo in doubt) [Example 387, 2-((R)-2-methyl-6-(2,3,5,6-tetrafluorophenyl)-3-thioxo-2,5,6,7-tetrahydro-3H-pyrrolo[1,2-c]imidazol-1-yl)-N—(((S)-tetrahydrofuran-2-yl)methyl)acetamide] | 92.9 % of control | 43.7 % of control | –
7 | Cl.Cn1c(CCN2CCOCC2)c2n(c1=S)C[C@@H](c1c(F)c(F)cc(F)c1F)C2 [Example 257, (R)-2-methyl-1-(2-morpholinoethyl)-6-(2,3,5,6-tetrafluorophenyl)-2,5,6,7-tetrahydro-3H-pyrrolo[1,2-c]imidazole-3-thione Hydrochloride] | 105.9 % of control | 92.4 % of control | –
8 | CC(C)NCCc1[nH]c(=S)n2c1[C@@H]1C[C@]1(c1cc(Cl)ccc1F)C2.Cl [Example 175, (5aS,6aR)-5a-(5-chloro-2-fluorophenyl)-1-(2-(isopropylamino)ethyl)-5,5a,6,6a-tetrahydrocyclopropa[3,4]pyrrolo[1,2-c]imidazole-3(2H)-thione hydrochloride] | – | 61.7 % of control | 13.8 % of control
9 | O=C(Cc1[nH]c(=S)n2c1C[C@H](c1c(F)c(F)cc(F)c1F)C2)N1CCC(O)CC1 [Example 82, (R)-1-(4-hydroxypiperidin-1-yl)-2-(6-(2,3,5,6-tetrafluorophenyl)-3-thioxo-2,5,6,7-tetrahydro-3H-pyrrolo[1,2-c]imidazol-1-yl)ethan-1-one] | – | 69.2 % of control | 16.6 % of control
10 | CN(CCO)C(=O)Cc1[nH]c(=S)n2c1C[C@H](c1c(F)ccc(Br)c1F)C2 [Example 131, (R)-2-(6-(3-bromo-2,6-difluorophenyl)-3-thioxo-2,5,6,7-tetrahydro-3H-pyrrolo[1,2-c]imidazol-1-yl)-N-(2-hydroxyethyl)-N-methylacetamide] | 89.8 % of control | 50.5 % of control | –
11 | Cn1c(CC(=O)O)c2n(c1=S)C[C@H](c1cc(Cl)ccc1F)C2 [Example 230, (S)-2-(6-(5-chloro-2-fluorophenyl)-2-methyl-3-thioxo-2,5,6,7-tetrahydro-3H-pyrrolo[1,2-c]imidazol-1-yl)acetic acid] | 82.0 % of control | 41.6 % of control | –
12 | CS(=O)(=O)C1CCN(C(=O)Cc2[nH]c(=S)n3c2C[C@@H](c2c(F)ccc(Br)c2F)C3)CC1 [Example 123, (S)-2-(6-(3-bromo-2,6-difluorophenyl)-3-thioxo-2,5,6,7-tetrahydro-3H-pyrrolo[1,2-c]imidazol-1-yl)-1-(4-(methylsulfonyl)piperidin-1-yl)ethan-1-one] | 51.9 % of control | 6.3 % of control | –
13 | O=C(Cc1[nH]c(=S)n2c1C[C@H](c1c(F)c(F)cc(F)c1F)C2)N1CCC(CO)CC1 [Example 83, (R)-1-(4-(hydroxymethyl)piperidin-1-yl)-2-(6-(2,3,5,6-tetrafluorophenyl)-3-thioxo-2,5,6,7-tetrahydro-3H-pyrrolo[1,2-c]imidazol-1-yl)ethan-1-one] | – | 78.8 % of control | 15.9 % of control
14 | Cn1c(CC(=O)NCC2CCOCC2)c2n(c1=S)C[C@H](c1c(F)ccc(F)c1F)C2 [Example 427, (S)-2-(2-methyl-3-thioxo-6-(2,3,6-trifluorophenyl)-2,5,6,7-tetrahydro-3H-pyrrolo[1,2-c]imidazol-1-yl)-N-((tetrahydro-2H-pyran-4-yl)methyl)acetamide] | 78.1 % of control | 34.2 % of control | –
15 | CCOC(=O)Cc1[nH]c(=S)n2c1C[C@@H](c1cc(Br)ccc1F)C2 [Example 62, Ethyl (S)-2-(6-(5-bromo-2-fluorophenyl)-3-thioxo-2,5,6,7-tetrahydro-3H-pyrrolo[1,2-c]imidazol-1-yl)acetate] | – | 66.4 % of control | 10.9 % of control
16 | Cn1c(CC(=O)NCC#N)c2n(c1=S)C[C@H](c1c(F)ccc(Br)c1F)C2 [Example 253, (S)-2-(6-(3-bromo-2,6-difluorophenyl)-2-methyl-3-thioxo-2,5,6,7-tetrahydro-3H-pyrrolo[1,2-c]imidazol-1-yl)-N-(cyanomethyl)acetamide] | 63.4 % of control | 24.5 % of control | –
17 | Cl.Fc1ccc(F)c([C@H]2Cc3c(CCNCC4CCOCC4)[nH]c(=S)n3C2)c1F [Example 473, (R)-1-(2-(((tetrahydro-2H-pyran-4-yl)methyl)amino)ethyl)-6-(2,3,6-trifluorophenyl)-2,5,6,7-tetrahydro-3H-pyrrolo[1,2-c]imidazole-3-thione hydrochloride] | 98.9 % of control | 46.2 % of control | –

Reference: patent US11434242B2, “Dopamine-b-hydroxylase inhibitors” (BIAL-PORTELA & Cª, S.A., priority 2017, dated 2022)
